Laboratory results reported in PubChem BioAssay AID248 (DTP/NCI, 2004).
Several values for one entry are separate records, joined by “and”; a condition that tells them apart may be missing. Equal values may be shown once. Inconclusive results and toxic doses are left out. Cut-off read from the data, not from the text of the source: active = T/C of 150% or more; inactive = T/C below 125%.

Test system: L1210 leukemia ip in BDF1 mice, survival T/C
Assay: NCI In Vivo Anticancer Drug Screen. Data for tumor model L1210 Leukemia (intraperitoneal) in B6D2F1 (BDF1) mice
Conditions: endpoint: mean survival time, higher = longer survival
Summary of the method: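 Tumor was transplanted into mice, which were then dosed with test compound or vehicle alone. Survival was recorded for each group, and the treated figure was expressed relative to the control figure.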

[1] = dose: 100.0 mg/kg/injection, schedule: Q04DX003 (ip), vehicle: saline
[2] = dose: 200.0 mg/kg/injection, schedule: Q04DX003 (ip), vehicle: saline
[3] = dose: 400.0 mg/kg/injection, schedule: Q04DX003 (ip), vehicle: saline
[4] = dose: 100.0 mg/kg/injection, schedule: Q01DX009 (ip), vehicle: Klucel (hydroxypropylcellulose) (HPC)
[5] = dose: 200.0 mg/kg/injection, schedule: Q01DX009 (ip), vehicle: Klucel (hydroxypropylcellulose) (HPC)
[6] = dose: 400.0 mg/kg/injection, schedule: Q01DX009 (ip), vehicle: Klucel (hydroxypropylcellulose) (HPC)
[7] = dose: 100.0 mg/kg/injection, schedule: Q04DX002 (ip), vehicle: Klucel (hydroxypropylcellulose) (HPC)
[8] = dose: 200.0 mg/kg/injection, schedule: Q04DX002 (ip), vehicle: Klucel (hydroxypropylcellulose) (HPC)
[9] = dose: 400.0 mg/kg/injection, schedule: Q04DX002 (ip), vehicle: Klucel (hydroxypropylcellulose) (HPC)
[10] = dose: 100.0 mg/kg/injection, schedule: Q04DX002 (ip), vehicle: saline

Measured: T/C

CC(=O)OC12CC[N+]3(C)CCCCC3C1=Nc1ccccc12 (configuration not stated)
inactive: dose: 6.25 mg/kg/injection, schedule: Q01DX009 (ip), vehicle: saline 98 % of control | dose: 10.0 mg/kg/injection, schedule: Q01DX001 (ip), vehicle: carboxymethylcellulose (CMC) 102 % of control | dose: 12.5 mg/kg/injection, schedule: Q01DX009 (ip), vehicle: saline 102 % of control | dose: 20.0 mg/kg/injection, schedule: Q01DX001 (ip), vehicle: carboxymethylcellulose (CMC) 105 % of control | dose: 25.0 mg/kg/injection, schedule: Q01DX009 (ip), vehicle: saline 102 % of control | dose: 25.0 mg/kg/injection, schedule: Q04DX003 (ip), vehicle: saline 103 % of control | dose: 40.0 mg/kg/injection, schedule: Q01DX001 (ip), vehicle: carboxymethylcellulose (CMC) 100 % of control | dose: 80.0 mg/kg/injection, schedule: Q01DX001 (ip), vehicle: carboxymethylcellulose (CMC) 102 % of control

Cc1cccc[n+]1Cc1cc(=O)[nH]c(=O)[nH]1
inactive: [1] 101 % of control | [2] 98 % of control | [3] 98 % of control

CCN(CCC#N)C(=S)Nc1cccc2ccccc12
inactive: [4] 102 % of control | [5] 101 % of control | [6] 104 % of control

NC1CC[N-]CC1.NC1CC[N-]CC1.[Cl][Pt+2][Cl]
inactive: dose: 50.0 mg/kg/injection, schedule: Q04DX003 (ip), vehicle: saline 108 % of control | dose: 100.0 mg/kg/injection, schedule: Q01DX009 (ip), vehicle: saline 94 % of control | [1] 102 % of control | dose: 200.0 mg/kg/injection, schedule: Q01DX009 (ip), vehicle: saline 100 % of control | [2] 108 % of control | [3] 100 % of control

CC(C)(O)CC(O)(C(F)(F)F)C(F)(F)F
inactive: dose: 6.0 mg/kg/injection, schedule: Q01DX009 (ip), vehicle: other 94 % of control | dose: 12.0 mg/kg/injection, schedule: Q01DX009 (ip), vehicle: other 100 % of control | dose: 25.0 mg/kg/injection, schedule: Q01DX009 (ip), vehicle: other 105 % of control and 106 % of control and 86 % of control | dose: 50.0 mg/kg/injection, schedule: Q01DX009 (ip), vehicle: other 97 % of control | dose: 100.0 mg/kg/injection, schedule: Q01DX009 (ip), vehicle: other 98 % of control

O=C(NC(=S)Nc1ccc([N+](=O)[O-])cc1Cl)c1ccccc1F
inactive: [7] 91 % of control | [8] 105 % of control | [9] 105 % of control

CCOC(=O)Nc1cc(NC(c2ccccc2)c2ccccc2)c(N)c(N)n1
inactive: dose: 100.0 mg/kg/injection, schedule: Q01DX001 (ip), vehicle: carboxymethylcellulose (CMC) 102 % of control | [4] 98 % of control | dose: 200.0 mg/kg/injection, schedule: Q01DX001 (ip), vehicle: carboxymethylcellulose (CMC) 122 % of control | [5] 98 % of control | dose: 400.0 mg/kg/injection, schedule: Q01DX001 (ip), vehicle: carboxymethylcellulose (CMC) 107 % of control | [6] 91 % of control

O=S(=O)(OCC(O)C1OCOC2COCOC21)c1ccccc1 (configuration not stated)
inactive: dose: 100.0 mg/kg/injection, schedule: Q01DX001 (ip), vehicle: Klucel (hydroxypropylcellulose) (HPC) 112 % of control | dose: 200.0 mg/kg/injection, schedule: Q01DX001 (ip), vehicle: Klucel (hydroxypropylcellulose) (HPC) 93 % of control | dose: 400.0 mg/kg/injection, schedule: Q01DX001 (ip), vehicle: Klucel (hydroxypropylcellulose) (HPC) 97 % of control

C/C([O-])=C(/c1nc(-c2ccc([N+](=O)[O-])o2)no1)[n+]1cc(C)ccc1C
inactive: [7] 95 % of control | [8] 91 % of control | [9] 87 % of control

CC1CN(Cc2ccccc2)C(=O)N(c2ccccc2)C1=O (configuration not stated)
inactive: dose: 100.0 mg/kg/injection, schedule: Q01DX Z (ip), vehicle: methylcellulose (MC) 92 % of control

CC(S(C)(=O)=O)(S(C)(=O)=O)S(C)(=O)=O
inactive: dose: 75.0 mg/kg/injection, schedule: Q01DX001 (ip), vehicle: saline with Tween-80 96 % of control | dose: 150.0 mg/kg/injection, schedule: Q01DX001 (ip), vehicle: saline with Tween-80 96 % of control | dose: 300.0 mg/kg/injection, schedule: Q01DX001 (ip), vehicle: saline with Tween-80 107 % of control

CCOC(=O)Cc1ccc2c(c1)sc(=S)n2C
inactive: dose: 100.0 mg/kg/injection, schedule: Q04DX003 (ip), vehicle: Klucel (hydroxypropylcellulose) (HPC) 96 % of control | dose: 200.0 mg/kg/injection, schedule: Q04DX003 (ip), vehicle: Klucel (hydroxypropylcellulose) (HPC) 87 % of control | dose: 400.0 mg/kg/injection, schedule: Q04DX003 (ip), vehicle: Klucel (hydroxypropylcellulose) (HPC) 92 % of control

O=C(C=C(C(F)(F)F)C(F)(F)F)c1cccc([N+](=O)[O-])c1
inactive: dose: 6.25 mg/kg/injection, schedule: Q01DX009 (ip), vehicle: saline with Tween-80 101 % of control | dose: 12.5 mg/kg/injection, schedule: Q01DX009 (ip), vehicle: saline with Tween-80 103 % of control | dose: 25.0 mg/kg/injection, schedule: Q01DX009 (ip), vehicle: saline with Tween-80 97 % of control

O=C(/C=C/c1ccccc1)c1ccc(N=Cc2ccccc2)cc1
inactive: dose: 50.0 mg/kg/injection, schedule: Q01DX001 (ip), vehicle: saline 94 % of control | dose: 100.0 mg/kg/injection, schedule: Q01DX001 (ip), vehicle: saline 94 % of control | dose: 200.0 mg/kg/injection, schedule: Q01DX001 (ip), vehicle: saline 90 % of control | dose: 400.0 mg/kg/injection, schedule: Q01DX001 (ip), vehicle: saline 105 % of control

CC(=O)Cc1ccc(Cl)cc1
inactive: [10] 92 % of control | dose: 200.0 mg/kg/injection, schedule: Q04DX002 (ip), vehicle: saline 95 % of control | dose: 400.0 mg/kg/injection, schedule: Q04DX002 (ip), vehicle: saline 99 % of control

COc1cccc(CCOC(C)=O)c1
inactive: dose: 100.0 mg/kg/injection, schedule: Q04DX002 (ip), vehicle: saline with Tween-80 94 % of control | dose: 200.0 mg/kg/injection, schedule: Q04DX002 (ip), vehicle: saline with Tween-80 108 % of control | dose: 400.0 mg/kg/injection, schedule: Q04DX002 (ip), vehicle: saline with Tween-80 97 % of control

CC(=O)c1c(C)[nH]c2ccc(NS(=O)(=O)N(C)C)cc12
inactive: dose: 75.0 mg/kg/injection, schedule: Q04DX003 (ip), vehicle: Klucel (hydroxypropylcellulose) (HPC) 96 % of control | dose: 150.0 mg/kg/injection, schedule: Q04DX003 (ip), vehicle: Klucel (hydroxypropylcellulose) (HPC) 102 % of control | dose: 300.0 mg/kg/injection, schedule: Q04DX003 (ip), vehicle: Klucel (hydroxypropylcellulose) (HPC) 100 % of control

CSC(=NCc1ccccc1)NC1CCCCC1
inactive: dose: 12.5 mg/kg/injection, schedule: Q04DX002 (ip), vehicle: Klucel (hydroxypropylcellulose) (HPC) 100 % of control | dose: 25.0 mg/kg/injection, schedule: Q04DX002 (ip), vehicle: Klucel (hydroxypropylcellulose) (HPC) 107 % of control | dose: 50.0 mg/kg/injection, schedule: Q04DX002 (ip), vehicle: Klucel (hydroxypropylcellulose) (HPC) 107 % of control

COC1C(C)(C)C2(C)CC[N+]1(Cc1ccccc1)C2 (configuration not stated)
inactive: dose: 25.0 mg/kg/injection, schedule: Q04DX002 (ip), vehicle: saline 106 % of control | dose: 50.0 mg/kg/injection, schedule: Q04DX002 (ip), vehicle: saline 97 % of control | [10] 116 % of control

O=c1cc(NCc2cccc(Cl)c2)[nH]c(=O)[nH]1
inactive: dose: 100.0 mg/kg/injection, schedule: Q01DX001 (ip), vehicle: saline with Tween-80 91 % of control | dose: 200.0 mg/kg/injection, schedule: Q01DX001 (ip), vehicle: saline with Tween-80 86 % of control | dose: 400.0 mg/kg/injection, schedule: Q01DX001 (ip), vehicle: saline with Tween-80 89 % of control
